Values after ≈ are worked out from the molar mass of the structure shown. Like-named read-outs stand apart in the source and are kept apart here.
Assay: Solubility of budesonide at room temperature
Format: physicochemical
Protocol: The solubility at room temperature of budesonide in water was determined to be about. 0.01 mg/ml, about 1 mg/ml in glycerin and about 10 mg/ml in propylene glycol at room temperature.

- solubility (organic solvent or mixture, glycerin, read-out: solubility in glycerin): ~1 mg/mL (≈ 2320 µM)
- solubility (organic solvent or mixture, propylene glycol, read-out: solubility in propylene glycol): ~10 mg/mL (≈ 23200 µM)
- solubility (water, read-out: solubility in water): ~0.01 mg/mL (≈ 23.2 µM)
Compound: CCCC1O[C@@H]2C[C@H]3[C@@H]4CCC5=CC(=O)C=C[C@]5(C)[C@H]4[C@@H](O)C[C@]3(C)[C@]2(C(=O)CO)O1 (stereo partly drawn) [budesonide, 16,17-butylidenebis(oxy)-11,21-dihydroxy-, (11β, 16α)-pregna-1,4-diene-3,20-dione]
